Measured values: patent publication US5877212A (priority 1997, dated 1999)
Like-named read-outs stand apart in the source and are kept apart here.

Columns and labels:
[1] = water; cited from earlier work
[2] = type: physicochemical
[3] = in vivo
[4] = in vivo, pH 4.8
[5] = parameters: species or system human; conditions: in vivo

| SMILES | pK1 (pKa) [1] | also measured |
| --- | --- | --- |
| O=C(O)C(O)CO (racemic) [DL-Glyceric acid, 2,3-dihydroxypropanoic acid] | 3.64 | – |
| CCC(O)C(=O)O (centres unmarked) [2-Hydroxybutanoic acid] | 3.65 | – |
| O=C(O)C(O)CCl (centres unmarked) [3-Chlorolactic acid] | 3.12 | – |
| CC(O)(C(=O)O)c1ccccc1 (centres unmarked) [Atrolactic acid, 2-phenyl 2-methyl 2-hydroxyethanoic acid] | 3.53 | – |
| O=C(O)C(O)C(O)C(O)C(O)CO [D-Gluconic acid, 2,3,4,5,6-pentahydroxyhexanoic acid] | 3.86 | – |
| O=C(O)C(O)C(O)C(O)C(O)C(=O)O (centres unmarked) [Glucaric acid, 2,3,4,5-tetrahydroxyhexane-1,6-dioic acid] | 5.00 | – |
| O=C(O)CO [Glycolic acid, 2-hydroxyethanoic acid] | – | anion content (glycolate) ([2]; pH 3.2): 2%; free acid content ([2]; pH 3.2): 8%; anion content (glycolate) ([2]; pH 3.83): 5%; free acid content ([2]; pH 3.83): 5% |
| C[C@H](O)CC(=O)O [L-3-Hydroxybutanoic acid] | 4.41 | – |
| C[C@H](O)C(=O)O [L-Lactic acid, 2-hydroxypropanoic acid] | – | anion content (lactate) ([2]; pH 3.86): 5%; free acid content ([2]; pH 3.86): 5% |
| O=C(O)CC(O)C(=O)O (centres unmarked) [Malic acid, 2-hydroxybutane-1,4-dioic acid] | 3.46 | pK2 [1]: 5.10 |
| O=C(O)C(O)c1ccccc1 (centres unmarked) [Mandelic acid, 2-phenyl 2-hydroxyethanoic acid] | 3.41 | – |
| CC(C)(O)C(=O)O [Methyllactic acid, 2-methyl 2-hydroxypropanoic acid] | 3.72 | – |
| CC(=O)C(=O)O [Pyruvic acid, 2-ketopropanoic acid] | 2.49 | – |
| O=C(O)C(O)C(=O)O [Tartronic acid, 2-hydroxypropane-1,3-dioic acid] | 2.37 | pK2 [1]: 4.74 |
| O=C(O)C(CO)c1ccccc1 (centres unmarked) [Tropic acid, 2-phenyl-3-hydroxypropanoic acid] | 3.53 | – |
| Oc1ccc(O)cc1 [hydroquinone] | – | improvement of pigmented and non-pigmented spots and patches [3]: improved very slightly |
| CC(O)C(=O)O (centres unmarked) [lactic acid, 2-hydroxypropanoic acid] | – | anion content (lactate) ([2]; pH 4.5): 8%; free acid content ([2]; pH 4.5): 2%; skin irritation [4]: can still irritate sensitive skin or atopic skin |
| O=C(O)c1ccccc1O [salicylic acid] | – | improvement of acne lesions [5]: improved slightly |
